Assays:
[1] = system: Macaca fascicularis; assay: Experiment 1: sleep electroencephalogram (sleep latency and sleep duration in the night) in monkeys after oral administration; format: in vivo; settings: female Macaca fascicularis, compound A 0.3 mg/kg, ritanserin 1 mg/kg; for SWS (slow-wave sleep) duration in breakdown of sleep duration / total sleep duration: 12 hours from lights-out to lights-on, drug-treated value; for sleep latency of LS / sleep latency of SWS: before lights-out, drug-treated value (vs vehicle, crossover)
Description: 3 Female Macaca fascicularis were used for experiment. Drugs were administered according to crossover design. Test animals were operated to place an electrode to measure electroencephalogram, and were naturalized fully to test cage. The test animals were raised under light-dark cycle of 12 hour-light period and 12 hour-dark period (light period is from 6:00 to 18:00).
The dose of compound A was 0.3 mg/kg, and the dose of ritanserin was 1 mg/kg, and these were suspended in 0.5% methylcellulose solution to make dosage of 1 ml/kg. As control, 0.5% methylcellulose solution was used. Administration was conducted orally using transnasal catheter 5 to 10 minutes before extinction (17:50-17:55).
Measurement items were electroencephalogram, ocular movement and myogenic potential, and behavior was observed using infrared camera. Measurement was carried out for 12 hours from lights-out (18:00) to lights-on (6:00).
Data analysis was carried out for sleep latency and total sleep duration in the night.

[2] = system: Cat; assay: Experiment 2: effect of combined use of compound A and gabapentin (GBP) on sleep wakefulness of cat (sleep electroencephalogram); format: in vivo; settings: oral capsule, 8 hours after administration, compound A 0.1 mg/kg, gabapentin 10 mg/kg
Description: Used animals: 4 Siamese cats (purchased from Narc co.), 2 European shorthairs (purchased from Nisseiken co. Ltd.) and 1 mongrel cat (purchased from Narc co.) were used.
Under pentobarbital anesthesia, the following electrode and the like were implanted. An antibiotic was administered to prevent bacterial infection, and taming to cage for measuring electroencephalogram was started from 3 to 4 days after the operation. Measurement of electroencephalogram was carried out after 1 to 2 weeks of taming. • electrode for recording electroencephalogram in frontal lobe of cerebral cortex, frontal lobe and hippocampus • electrode for electrooculogram in orbit bone • stainless wire for recording electromyogram in dorsal cervical muscle […]
After being attached the electrodes for measurement from about 8:30 in the morning, the cats were placed in test box. Administration was conducted by 9:55 to 10:05 in the morning, and the sleep electroencephalogram for 8 hours after administration was measured.
Electroencephalogram data was obtained using Synafit 2500 of NEC Saneisha. […] In addition, the stage judged to be at slow-wave sleep was extracted, frequency analysis was carried out, and power spectrum during slow-wave sleep was calculated. […]

Structure (SMILES)	SWS (slow-wave sleep) duration in breakdown of sleep duration [1]	total sleep duration [1]	sleep latency of LS [1]	sleep latency of SWS [1]	total slow-wave sleep duration [2]
CCC(=O)NCC[C@@H]1CCc2ccc3c(c21)CCO3 [compound A, (S)—N-[2-(1,6,7,8-tetrahydro-2H-indeno[5,4-b]furan-8-yl)ethyl]propionamide]	135 min	610 min	13.3 min	31.3 min	124.9 min
Cc1nc2sccn2c(=O)c1CCN1CCC(=C(c2ccc(F)cc2)c2ccc(F)cc2)CC1 [ritanserin, reference compound]	249 min	573 min	12.0 min	39.3 min	

From patent US20080242682A1, “Preventive or Therapeutic Agent for Sleep Disorder” (Takeda Pharmaceutical Company Limited, priority 2004, published 2008)
